Peptide text beside a SMILES is read from it.

For orientation: inhibition means the change of the read-out against control, counted positive when it falls.

For one experiment, the system named is PC-12. The experiment can be described thus: Neuroprotective activity against amyloid beta 42-induced toxicity in rat PC-12 cells assessed as cell viability at 4 uM measured after 6 hrs by MTT assay (reference value: 74.05%). As to conditions: read-out: Activity. The class given is functional. A general note: Formazan colour is commonly taken as a measure of viable cells.
For the compound `CC(C)[C@H](N)C(=O)N[C@H](C(=O)NC[C@@H]1CCCN1[C@@H](C)C(=O)O)C(C)C`, the viability at 4 µM came out at 64.7%.

As to `CC[C@H](C)[C@H](NC(=O)[C@@H](NC(=O)C[C@H](N)c1ccccc1)C(C)C)C(=O)N[C@@H](C)C(=O)O`, the viability at 4 µM was 66.3%.

As to `CC[C@H](C)[C@H](NC(=O)CNC(=O)CN)C(=O)N[C@@H](C)C(=O)O` (H-GGIA-OH), the viability at 4 µM was determined as 72.8%.

Take `CC[C@H](C)[C@H](NC(=O)[C@@H](NC(=O)[C@@H](N)C(C)C)C(C)C)C(=O)N[C@@H](CCC(=O)O)C(=O)O` (H-VVIE-OH): the viability at 4 µM was determined as 76.3%.

Consider `CC[C@H](C)[C@H](NC(=O)[C@@H](NC(=O)[C@@H](N)C(C)C)C(C)C)C(=O)N[C@@H](CC(N)=O)C(=O)O` (H-VVIN-OH), for which the viability at 4 µM turned out to be 67.4%.

As to `CC[C@H](C)[C@H](NC(=O)[C@@H](NC(=O)[C@@H](N)C(C)C)C(C)C)C(=O)N[C@@H](CCC(N)=O)C(=O)O` (H-VVIQ-OH), the viability at 4 µM is 75.2%.

The next experiment deals with PC-12. The experiment can be described thus: Neuroprotective activity against amyloid beta 42-induced toxicity in rat PC-12 cells assessed as cell viability at 2 uM measured after 6 hrs by MTT assay (reference value: 74.05%). The format is functional. As to conditions: read-out: Activity.
Take `CC(C)[C@H](N)C(=O)N[C@H](C(=O)NC[C@@H]1CCCN1[C@@H](C)C(=O)O)C(C)C`: the viability at 2 µM was 72%.

Turning to `CC[C@H](C)[C@H](NC(=O)[C@@H](NC(=O)C[C@H](N)c1ccccc1)C(C)C)C(=O)N[C@@H](C)C(=O)O`, the viability at 2 µM was found to be 69.1%.

Turning to `CC[C@H](C)[C@H](NC(=O)CNC(=O)CN)C(=O)N[C@@H](C)C(=O)O` (H-GGIA-OH), the viability at 2 µM was determined as 100%.

For the compound `CC[C@H](C)[C@H](NC(=O)[C@@H](NC(=O)[C@@H](N)C(C)C)C(C)C)C(=O)N[C@@H](CCC(=O)O)C(=O)O` (H-VVIE-OH), the viability at 2 µM was 68.9%.

Regarding `CC[C@H](C)[C@H](NC(=O)[C@@H](NC(=O)[C@@H](N)C(C)C)C(C)C)C(=O)N[C@@H](CC(N)=O)C(=O)O` (H-VVIN-OH), the viability at 2 µM was 93.6%.

On to `CC[C@H](C)[C@H](NC(=O)[C@@H](NC(=O)[C@@H](N)C(C)C)C(C)C)C(=O)N[C@@H](CCC(N)=O)C(=O)O` (H-VVIQ-OH), for which the viability at 2 µM was 76.9%.

In another experiment the target is Amyloid-beta precursor protein (Homo sapiens) (UniProt P05067). In words: Inhibition of amyloid beta (1 to 42) (unknown origin) assessed as reduction in peptide aggregation at 4 uM measured after 24 hrs by thioflavin-T fluorescence assay relative to control.
Sequence of Amyloid-beta precursor protein (Homo sapiens) (P05067 whole entry): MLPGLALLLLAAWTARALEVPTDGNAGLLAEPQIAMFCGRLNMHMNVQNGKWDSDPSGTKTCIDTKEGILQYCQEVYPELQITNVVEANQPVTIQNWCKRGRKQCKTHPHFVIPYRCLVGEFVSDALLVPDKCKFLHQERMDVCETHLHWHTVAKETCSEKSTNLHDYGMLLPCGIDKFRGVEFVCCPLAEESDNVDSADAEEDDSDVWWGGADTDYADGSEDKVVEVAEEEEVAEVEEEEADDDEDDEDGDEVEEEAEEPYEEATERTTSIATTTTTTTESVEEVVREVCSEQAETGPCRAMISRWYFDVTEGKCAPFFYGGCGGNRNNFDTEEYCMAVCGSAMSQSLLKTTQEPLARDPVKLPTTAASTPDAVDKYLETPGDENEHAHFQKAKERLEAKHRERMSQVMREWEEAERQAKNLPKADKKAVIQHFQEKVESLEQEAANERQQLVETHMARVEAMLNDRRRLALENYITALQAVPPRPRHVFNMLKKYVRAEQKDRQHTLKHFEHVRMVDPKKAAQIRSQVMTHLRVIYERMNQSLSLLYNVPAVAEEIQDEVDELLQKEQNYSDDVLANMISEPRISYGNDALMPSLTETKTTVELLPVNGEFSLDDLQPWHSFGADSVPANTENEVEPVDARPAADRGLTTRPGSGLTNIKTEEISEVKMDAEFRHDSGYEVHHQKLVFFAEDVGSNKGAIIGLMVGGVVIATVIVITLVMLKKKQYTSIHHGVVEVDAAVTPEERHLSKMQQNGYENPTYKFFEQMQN
Conditions: not given
For `CC(C)[C@H](N)C(=O)N[C@H](C(=O)NC[C@@H]1CCCN1[C@@H](C)C(=O)O)C(C)C`, the inhibition was found to be 0%.

With `CC[C@H](C)[C@H](NC(=O)[C@@H](NC(=O)C[C@H](N)c1ccccc1)C(C)C)C(=O)N[C@@H](C)C(=O)O`, the inhibition stood at 58.2%.

With `CC[C@H](C)[C@H](NC(=O)CNC(=O)CN)C(=O)N[C@@H](C)C(=O)O` (H-GGIA-OH), the inhibition was determined as 95.2%.

Take `CC[C@H](C)[C@H](NC(=O)[C@@H](NC(=O)[C@@H](N)C(C)C)C(C)C)C(=O)N[C@@H](CCC(=O)O)C(=O)O` (H-VVIE-OH): the inhibition is 39.3%.

Turning to `CC[C@H](C)[C@H](NC(=O)[C@@H](NC(=O)[C@@H](N)C(C)C)C(C)C)C(=O)N[C@@H](CC(N)=O)C(=O)O` (H-VVIN-OH), the inhibition worked out at 59.9%.

With `CC[C@H](C)[C@H](NC(=O)[C@@H](NC(=O)[C@@H](N)C(C)C)C(C)C)C(=O)N[C@@H](CCC(N)=O)C(=O)O` (H-VVIQ-OH), the inhibition was 26.5%.

For a further experiment the target is unchanged. In words: Inhibition of amyloid beta (1 to 42) (unknown origin) assessed as reduction in peptide aggregation at 2 uM measured after 24 hrs by thioflavin-T fluorescence assay relative to control.
Conditions: not given
On to `CC(C)[C@H](N)C(=O)N[C@H](C(=O)NC[C@@H]1CCCN1[C@@H](C)C(=O)O)C(C)C`, for which the inhibition was 0%.

On to `CC[C@H](C)[C@H](NC(=O)[C@@H](NC(=O)C[C@H](N)c1ccccc1)C(C)C)C(=O)N[C@@H](C)C(=O)O`, for which the inhibition was determined as 50.1%.

For `CC[C@H](C)[C@H](NC(=O)CNC(=O)CN)C(=O)N[C@@H](C)C(=O)O` (H-GGIA-OH), the inhibition worked out at 93.6%.

As for `CC[C@H](C)[C@H](NC(=O)[C@@H](NC(=O)[C@@H](N)C(C)C)C(C)C)C(=O)N[C@@H](CCC(=O)O)C(=O)O` (H-VVIE-OH), the inhibition turned out to be 38.8%.

For `CC[C@H](C)[C@H](NC(=O)[C@@H](NC(=O)[C@@H](N)C(C)C)C(C)C)C(=O)N[C@@H](CC(N)=O)C(=O)O` (H-VVIN-OH), the inhibition worked out at 38.6%.

For the compound `CC[C@H](C)[C@H](NC(=O)[C@@H](NC(=O)[C@@H](N)C(C)C)C(C)C)C(=O)N[C@@H](CCC(N)=O)C(=O)O` (H-VVIQ-OH), the inhibition came out at 24.2%.

Another experiment shares this target. In words: Inhibition of amyloid beta (1 to 42) (unknown origin) assessed as reduction in peptide aggregation at 10 uM measured after 24 hrs by thioflavin-T fluorescence assay relative to control.
Conditions: not given
`CC(C)[C@H](N)C(=O)N[C@H](C(=O)NC[C@@H]1CCCN1[C@@H](C)C(=O)O)C(C)C`: the inhibition was 11.9%.

Regarding `CC[C@H](C)[C@H](NC(=O)[C@@H](NC(=O)C[C@H](N)c1ccccc1)C(C)C)C(=O)N[C@@H](C)C(=O)O`, the inhibition was 67.3%.

For the compound `CC[C@H](C)[C@H](NC(=O)CNC(=O)CN)C(=O)N[C@@H](C)C(=O)O` (H-GGIA-OH), the inhibition is 98.3%.

In the case of `CC[C@H](C)[C@H](NC(=O)[C@@H](NC(=O)[C@@H](N)C(C)C)C(C)C)C(=O)N[C@@H](CCC(=O)O)C(=O)O` (H-VVIE-OH), the inhibition amounted to 65.1%.

With `CC[C@H](C)[C@H](NC(=O)[C@@H](NC(=O)[C@@H](N)C(C)C)C(C)C)C(=O)N[C@@H](CC(N)=O)C(=O)O` (H-VVIN-OH), the inhibition was 71.5%.

Regarding `CC[C@H](C)[C@H](NC(=O)[C@@H](NC(=O)[C@@H](N)C(C)C)C(C)C)C(=O)N[C@@H](CCC(N)=O)C(=O)O` (H-VVIQ-OH), the inhibition is 23.4%.

A further experiment relates to PC-12. In words: Neuroprotective activity against amyloid beta 42-induced toxicity in rat PC-12 cells assessed as cell viability at 10 uM measured after 6 hrs by MTT assay (reference value: 74.05%). As to conditions: read-out: Activity. The format is functional.
Take `CC(C)[C@H](N)C(=O)N[C@H](C(=O)NC[C@@H]1CCCN1[C@@H](C)C(=O)O)C(C)C`: the viability at 10 µM was determined as 58.8%.

For the compound `CC[C@H](C)[C@H](NC(=O)[C@@H](NC(=O)C[C@H](N)c1ccccc1)C(C)C)C(=O)N[C@@H](C)C(=O)O`, the viability at 10 µM was 58.8%.

On to `CC[C@H](C)[C@H](NC(=O)CNC(=O)CN)C(=O)N[C@@H](C)C(=O)O` (H-GGIA-OH), for which the viability at 10 µM came to 66.8%.

Regarding `CC[C@H](C)[C@H](NC(=O)[C@@H](NC(=O)[C@@H](N)C(C)C)C(C)C)C(=O)N[C@@H](CCC(=O)O)C(=O)O` (H-VVIE-OH), the viability at 10 µM amounted to 84.9%.

For `CC[C@H](C)[C@H](NC(=O)[C@@H](NC(=O)[C@@H](N)C(C)C)C(C)C)C(=O)N[C@@H](CC(N)=O)C(=O)O` (H-VVIN-OH), the viability at 10 µM was found to be 69.2%.

Consider `CC[C@H](C)[C@H](NC(=O)[C@@H](NC(=O)[C@@H](N)C(C)C)C(C)C)C(=O)N[C@@H](CCC(N)=O)C(=O)O` (H-VVIQ-OH), for which the viability at 10 µM turned out to be 74.6%.

The record behind these values is ChEMBL document CHEMBL4732135, “Structural and mechanistic insights into the inhibition of amyloid-β aggregation by Aβ fragment derived synthetic peptides” (Eur J Med Chem, 2021).
